Assay results published in patent US8299089B2, “Multi-arm polymeric conjugates of 7-ethyl-10-hydroxycamptothecin for treatment of breast, colorectal, pancreatic, ovarian and lung cancers” (priority 2006, dated 2012).

How the values were obtained:
[1] = Maximum tolerated dose (MTD) in nude mice; settings: mouse, in vivo
Source text: Mice were monitored for 14 days for mortality and signs of illness and sacrificed when body weight loss was >20% of the pretreatment body weight.

Colo 205 = assay: In vitro cytotoxicity, MTS assay, Colo 205; assay type: cell-based
Experimental: (§1) In Table 2, the cytotoxicity (μM of each compound that results in an IC50) provides an indication of the in vitro anti-tumor potency of each compound. This study was used to determine the effect of PEGylation of four-arm PEGylated 7-ethyl-10-hydroxycamptothecin conjugates. […] Cells were incubated with drugs for 72 hours at 37° C. Following incubation, MTS dye was added and formation of a colored product (formazan) was measured at 490 nm.

HT29 = assay: In vitro cytotoxicity, MTS assay, HT29; assay type: cell-based
Experimental: as §1

A549 = assay: In vitro cytotoxicity, MTS assay, A549; assay type: cell-based
Experimental: as §1

PANC-1 = assay: In vitro cytotoxicity, MTS assay, PANC-1; assay type: cell-based
Experimental: as §1

MIA PaCa-2 = assay: In vitro cytotoxicity, MTS assay, MIA PaCa-2; assay type: cell-based
Experimental: as §1

ASPC-1 = assay: In vitro cytotoxicity, MTS assay, ASPC-1; assay type: cell-based
Experimental: as §1

BxPC-3 = assay: In vitro cytotoxicity, MTS assay, BxPC-3; assay type: cell-based
Experimental: as §1

OVCAR-3 = assay: In vitro cytotoxicity, MTS assay, OVCAR-3; assay type: cell-based
Experimental: as §1

OV90 = assay: In vitro cytotoxicity, MTS assay, OV90; assay type: cell-based
Experimental: as §1

OVCAR-8 = assay: In vitro cytotoxicity, MTS assay, OVCAR-8; assay type: cell-based
Experimental: as §1

A2780 = assay: In vitro cytotoxicity, MTS assay, A2780; assay type: cell-based
Experimental: as §1

SK-0V-3 = assay: In vitro cytotoxicity, MTS assay, SK-0V-3; assay type: cell-based
Experimental: as §1

[2] = tested on: human mammary carcinoma (MX-1); assay: Single dose efficacy in MX-1 breast tumor xenograft mouse model; assay type: in vivo, nude mice; settings: day 31; for Mean TV ± SD: single dose i.v. 20 mg/kg (conjugate as 7-ethyl-10-hydroxycamptothecin equivalent)
Experimental: Following at least one week of acclimation, tumors were established by implanting small tumor fragments from donor mice into a single subcutaneous site, on the left auxiliary flank region of nude mice. The tumor implantation site was observed twice weekly and measured once palpable. The tumor volume for each mouse was determined by measuring two dimensions with calipers and calculated using the formula: tumor volume=(length×width^2). […] Drugs were administered intravenously via the tail vein as a single dose of 20 mg/kg body weight of a mouse. […] Mouse weight and tumor sizes were measured at the beginning of study and on the 31st day after the single dose administration.
The overall growth of tumors was calculated as the mean tumor volume (TV). A percent treatment over control (T/C) was also calculated. The percentage of tumor regression indicates the in vivo activity of each compound.

[3] = tested on: human mammary carcinoma (MX-1); assay: Multiple dose efficacy in MX-1 breast tumor xenograft mouse model; assay type: in vivo, nude mice; settings: i.v. 5 mg/kg/dose (q2d×6), day 31
Experimental: The mice were dosed 5 mg/kg/day […] (every 2 days [q×2d]×6). Mouse weight and tumor sizes were monitored up to the 31st day after the first dose administration and subsequent administrations.

[4] = tested on: human mammary, MX-1 tumors; assay: Efficacy in small and large MX-1 breast tumor xenografted mice; assay type: in vivo, nude mice; settings: for effect on body weight: given at the MTD, for the duration of the treatment
Experimental: The antitumor efficacy of 4armPEG-Gly-(7-ethyl-10-hydroxycamptothecin) was evaluated in nude mice bearing small (about 100 mm^3) or large (about 450 mm^3) established human mammary, MX-1 tumors. The antitumor therapeutic activities were determined in mice both with a single dose or multiple dose regimens.
Four of six mice were cured as of day 54. […] All animals were sacrificed by day 20 due to excessive tumor burden.

[5] = tested on: MiaPaCa-2 pancreatic tumor cells; assay: Efficacy in MiaPaCa-2 pancreatic tumor xenograft mice; assay type: in vivo
[6] = tested on: HT-29 colorectal tumor cells; assay: Efficacy in HT-29 colorectal tumor xenograft mice; settings: for effect on body weight: during the treatment
[7] = Stability in saline, aqueous medium and buffer; assay type: physicochemical; settings: effect of pH, FIG. 13
Experimental: PEG-7-ethyl-10-hydroxycamptothecin conjugates show good stability in saline and other aqueous medium for up to 24 hours at room temperature.

[8] = Pharmacokinetics in tumor free Balb/C mice; assay type: in vivo
Source text: Pharmacokinetic analysis was done using non-compartmental analysis (WinNonlin).

Pharmacokinetics in rats = assay type: in vivo; settings: rats, 3, 10 and 30 mg/kg; conjugate
[9] = tested on: panel of cancer cell lines; assay: In vitro cytotoxicity, panel of cancer cell lines (comparisons); assay type: cell-based
Experimental: as §1
PEG-(7-ethyl-10-hydroxycamptothecin) conjugates containing various amino acids are potent in vitro cytotoxicity against a panel of cancer cell lines as summarized in TABLE 3.

[10] = small tumors (about 100 mm^3), multiple doses 20 mg/kg q2d×5, as of day 31
[11] = small tumors (about 100 mm^3), single dose 20 mg/kg
[12] = multiple doses i.v. (10 mg/kg/dose for five days; CPT-11 also 40 mg/kg/dose)
[13] = single dose i.v. (30 mg/kg; CPT-11 also 80 mg/kg)

## CCc1c2c(nc3ccc(OC(=O)N4CCC(N5CCCCC5)CC4)cc13)-c1cc3c(c(=O)n1C2)COC(=O)[C@]3(O)CC [CPT-11, Irinotecan, reference compound]
[1]; multiple dose (q2d×5)
  MTD at 14 days: 40 mg/kg
[1]; single dose
  MTD at 14 days: 80 mg/kg
Colo 205; Homo sapiens, COLO 205
  IC50: 20 µM
Colo 205; Homo sapiens, COLO 205, 72 h
  IC50: 11 ± 1.4 µM
HT29; Homo sapiens, HT-29, 72 h
  IC50: 27 ± 8.6 µM
HT29; Homo sapiens, HT-29, Table 3, HT29 (colorectal)
  IC50: 56 µM
A549; Homo sapiens, A549, 72 h
  IC50: 67 ± 17 µM
A549; Homo sapiens, Table 3, A549 (lung)
  IC50: 13 µM
PANC-1; Homo sapiens, PANC-1, 72 h
  IC50: 34 ± 16 µM
MIA PaCa-2; Homo sapiens, MIA PaCa-2, 72 h
  IC50: 67 ± 46 µM
ASPC-1; Homo sapiens, ASPC1, 72 h
  IC50: 33 ± 1 µM
BxPC-3; Homo sapiens, BXPC-3, 72 h
  IC50: 44 ± 44 µM
OVCAR-3; Homo sapiens, OVCAR-3, 72 h
  IC50: 20 ± 7.1 µM
OVCAR-3; Homo sapiens, Table 3, OVCAR-3 (ovarian)
  IC50: 41 µM
OV90; Homo sapiens, OV-90, 72 h
  IC50: 18 ± 4.8 µM
OVCAR-8; Homo sapiens, OVCAR-8, 72 h
  IC50: 9 ± 1.3 µM
A2780; Homo sapiens, A2780, 72 h
  IC50: 8 ± 3.5 µM
SK-0V-3; 72 h
  IC50: 52 ± 8.5 µM
[2]
  Mean TV ± SD: 845 ± 50 mm^3
[2]; single dose i.v. 20 mg/kg
  Cures: 0%
  F/I: 843%
  Median TV: 845 mm^3
  Regressions: 0%
  Survival: 0%
  T/C: 108%
  TGI: 26%
[3]
  Chg in TV ± SD: 423 ± 243%
  Cures: 0%
  F/I: 594%
  Mean TV ± SD: 632 ± 698 mm^3
  Median TV: 340 mm^3
  Regressions: 0%
  Survival: 0%
  T/C: 43%
  TGI: 44%
[4]
  effect on body weight: did not significantly decrease the body weight
[4]; large tumors, 10 mg/kg q2d×5
  tumor growth inhibition: effective TGI until treatment was discontinued, after which tumors regrew
[4]; large tumors, 40 mg/kg q2d×5, after ~5 weeks
  mice in which tumors regrew: four of the six
[4]; large tumors, multiple doses at MTD 40 mg/kg q2d×5, as of day 13
  TGI: ~95%
[4]; large tumors, single MTD 80 mg/kg, day 13
  TGI: 70%
[4]; [10]
  TGI: 44%
[4]; [11]
  TGI: did not inhibit tumor growth
[5]; [12]
  TGI: 34%
[5]; [13]
  TGI: 0%
[6]
  effect on body weight: did not significantly decrease the body of weight

## ^40k4arm-PEG-Gly(20)-(7-ethyl-10-hydroxycamptothecin) [Compound 9]
Colo 205; Table 2, Colo 205, 72 hours, Compound 9 in 7-ethyl-10-hydroxycamptothecin equivalents, average ± SD (n = 3)
  IC50: 1 ± 0.6 µM
HT29; Table 2, HT29, 72 hours, Compound 9 in 7-ethyl-10-hydroxycamptothecin equivalents, average ± SD (n = 3)
  IC50: 0.5 ± 0.3 µM
A549; Table 2, A549, 72 hours, Compound 9 in 7-ethyl-10-hydroxycamptothecin equivalents, average ± SD (n = 3)
  IC50: 2.7 ± 0.4 µM
PANC-1; Table 2, PANC-1, 72 hours, Compound 9 in 7-ethyl-10-hydroxycamptothecin equivalents, average ± SD (n = 3)
  IC50: 0.67 ± 0.14 µM
MIA PaCa-2; Table 2, MIA PaCa-2, 72 hours, Compound 9 in 7-ethyl-10-hydroxycamptothecin equivalents, no SD = average of two replicates
  IC50: 0.09 µM
ASPC-1; Table 2, ASPC-1, 72 hours, Compound 9 in 7-ethyl-10-hydroxycamptothecin equivalents, average ± SD (n = 3)
  IC50: 1.6 ± 1.1 µM
BxPC-3; Table 2, BxPC-3, 72 hours, Compound 9 in 7-ethyl-10-hydroxycamptothecin equivalents, average ± SD (n = 3)
  IC50: 0.24 ± 0.04 µM
OVCAR-3; Table 2, OVCAR-3, 72 hours, Compound 9 in 7-ethyl-10-hydroxycamptothecin equivalents, average ± SD (n = 3)
  IC50: 0.3 ± 0.2 µM
OV90; Table 2, OV90, 72 hours, Compound 9 in 7-ethyl-10-hydroxycamptothecin equivalents, average ± SD (n = 3)
  IC50: 0.6 ± 0.7 µM
OVCAR-8; Table 2, OVCAR-8, 72 hours, Compound 9 in 7-ethyl-10-hydroxycamptothecin equivalents, average ± SD (n = 3)
  IC50: 0.5 ± 0.1 µM
A2780; Table 2, A2780, 72 hours, Compound 9 in 7-ethyl-10-hydroxycamptothecin equivalents, average ± SD (n = 3)
  IC50: 0.2 ± 0.2 µM
SK-0V-3; Table 2, SK-0V-3, 72 hours, Compound 9 in 7-ethyl-10-hydroxycamptothecin equivalents, average ± SD (n = 3)
  IC50: 0.9 ± 0.01 µM
[2]
  Mean TV ± SD: 7 ± 9 mm^3
[2]; single dose i.v. 20 mg/kg
  Chg in TV ± SD: −94 ± 10%
  Cures: 100%
  F/I: 7%
  Median TV: 3 mm^3
  Regressions: 100%
  Survival: 100%
  T/C: 0.3%
[2]; single dose i.v. 20 mg/kg, 20 mg/kg
  TGI: 99%
[2]; single dose i.v. 20 mg/kg, listed as 4armPEG-Gly-(7-ethyl-10-hydroxycamptothecin), 20 mg/kg
  TGI: ~100%
[3]
  Chg in TV ± SD: −91 ± 10%
  Cures: 100%
  F/I: 14%
  Mean TV ± SD: 12 ± 18 mm^3
  Median TV: 6.6 mm^3
  Regressions: 100%
  Survival: 100%
  T/C: 0.8%
  TGI: 99%
[4]
  effect on body weight: did not significantly decrease the body weight
[4]; large tumors (about 450 mm^3), single MTD 30 mg/kg
  TGI: 96%
[4]; large tumors, multiple doses 10 mg/kg q2d×5, as of day 54
  mice cured: five of six
[4]; large tumors, multiple doses at MTD 10 mg/kg q2d×5
  TGI: 96%
[4]; large tumors, single MTD 30 mg/kg, as of day 54
  mice cured: Four of six
[4]; [10]
  TGI: 96%
[4]; [11]
  TGI: 100%
[5]; [12]
  TGI: 95%
[5]; [13]
  TGI: 71%
[7]
  rate of 7-ethyl-10-hydroxycamptothecin release: increases with increased pH
[8]; for 7-ethyl-10-hydroxycamptothecin
  terminal elimination half-life: 18 to 26 h
[8]; for the conjugate
  terminal elimination half-life: 18 to 22 h
Pharmacokinetics in rats
  elimination half life: 12 to 18 h
[9]; all tested tumor cells
  in vitro inhibition compared with CPT-11: much higher in vitro inhibition
[9]; tested tumor cells except for HT29
  in vitro inhibition compared with native 7-ethyl-10-hydroxycamptothecin: significantly higher in vitro inhibition
[6]
  effect on body weight: did not significantly decrease the body of weight
[6]; i.v. 10 mg/kg/dose for five days, days 4-22
  therapeutic efficacy: significant therapeutic efficacy compared to that of CPT-11
[6]; single dose i.v. 30 mg/kg, days 4-22
  anti-tumor activity: significant anti-tumor activity
